Assay results published in patent US12162858B2, “Quinoline derivatives as inhibitors of AXL/MER RTK and CSF1R” (QURIENT CO., LTD., priority 2018, dated 2024).

Columns and labels:
MV4-11 tumor cells = test: MV4-11 xenograft tumor model; assay type: in vivo, BALB/c nude mice; conditions: oral, daily; vs compound 27 of WO 2016/166250 or vehicle; FIG. 2
From the text: (§1) FIGS. 1 and 2 show comparison data of compound 4 of the present invention (marked with two asterisks** and diamond) vs. compound 27 of WO2016/166250 (marked with single asterisk* and open square) in mouse models EMT-6 and MV4-11; EMT-6 measures triple inhibition of Axl, Mer and CSF1R. MV4-11 measures inhibition of Axl.
High expression of Axl or Gas6 in acute myeloid leukemia (AML) patients is prognostic for poor survival outcome. AML cells induce expression and secretion of the Axl ligand Gas6 by bone marrow-derived stromal cells (BMDSCs). Gas6 in turn mediates proliferation, survival, and chemoresistance of Axl-expressing AML cells. This Gas6/Axl paracrine axis between AML cells and BMDSCs establishes a chemoprotective tumor cell niche that can be abrogated by Axl-targeting approaches. […]
BALB/c nude mice (6-8 week female, Shanghai SIPPR/BK Laboratory Animal Co., LTD.) were inoculated subcutaneously at the upper right flank with MV4-11 tumor cells (1×10^7) in 0.1 mL of PBS+Matrigel (1:1) for tumor development. […] Tumor volumes were measured every 3 days with a digital caliper, and were calculated using the formula: V=0.5a×b^2 where a and b are the long and short diameters of the tumor in mm, respectively. Body weight was measured every 3 days. […] Death and observed clinical signs were recorded on the basis of the numbers of animals within each subset. […]

EMT-6 tumor cells = test: EMT-6 syngeneic tumor model; assay type: in vivo, BALB/c mice; conditions: oral, daily; vs compound 27 of WO 2016/166250 or vehicle; FIG. 1
From the text: as §1
In case of CSF1R, it mediates tumorigenesis in tumor-immune microenvironments and is expressed on myeloid cell tumor-associated macrophages (TAMs); elevated serum CSF1, increased numbers of TAMs in tumors, and high expression of tissue CSF1 and/or CSF1R are associated with poor prognosis in patients with various cancers. […] Therefore, EMT-6 is a suitable model for immune-oncology drug efficacy effects through changes in target immune cells.
BALB/c mice (6-8 week female, Beijing Vital River Laboratory Animal Technology Co., Ltd.) were inoculated subcutaneously at the upper right flank with EMT-6 tumor cells (1×10^6) in 0.1 mL of PBS for tumor development. […] Tumor volumes were measured every 3 days with a digital caliper, and were calculated using the formula: V=0.5a×b^2 where a and b are the long and short diameters of the tumor in mm, respectively. Body weight was measured every 3 days. […] Death and observed clinical signs were recorded on the basis of the numbers of animals within each subset. […]

## CCn1cc(OCC(F)(F)F)c(C(=O)Nc2ccc(Oc3ccnc4cc(OC)c(OC)cc34)cn2)n1 [Compound 4]
MV4-11 tumor cells
  tumor growth delay, MV4-11 xenograft model: delay tumor growth to a drastically larger extent
EMT-6 tumor cells
  tumor growth delay, EMT-6 syngeneic model: delay tumor growth to a significantly larger extent
